From patent US20230416225A1, “DIAMINOPYRIMIDINE CARBOXAMIDE INHIBITORS OF HPK1” (MERCK SHARP & DOHME LLC, priority 2020, published 2023)
pIC50: −log10 of the molar value.

Molecular target: T1, Human HPK1, catalytic domain (Homo sapiens, UniProt Q92918)
T1 construct: purchased Carna
T1 sequence (Q92918 1-346): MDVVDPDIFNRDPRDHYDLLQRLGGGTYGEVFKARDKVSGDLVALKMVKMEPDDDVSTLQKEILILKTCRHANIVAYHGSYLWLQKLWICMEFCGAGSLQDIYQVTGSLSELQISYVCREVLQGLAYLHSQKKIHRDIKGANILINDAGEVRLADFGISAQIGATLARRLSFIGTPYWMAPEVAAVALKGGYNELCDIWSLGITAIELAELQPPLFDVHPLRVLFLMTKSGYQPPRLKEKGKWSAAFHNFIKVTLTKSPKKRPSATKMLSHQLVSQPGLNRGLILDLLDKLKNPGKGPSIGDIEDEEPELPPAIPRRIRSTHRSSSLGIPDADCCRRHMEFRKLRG
Assay: HPK1-SLP76 TR-FRET assay
Assay type: biochemical
Conditions: 75 pM HPK1, 10 uM ATP, 10 nM SLP76, 30 min compound pre-incubation

SMILES | pIC50
COc1cc2c(cc1Nc1ncc(C(N)=O)c(Nc3ccccc3C[C@@H](O)c3ccccc3)n1)CN(C)CC2 [Example 13-10, 4-({2-[(2R)-2-hydroxy-2-phenylethyl]phenyl}amino)-2-[(6-methoxy-2-methyl-1,2,3,4-tetrahydroisoquinolin-7-yl)amino]pyrimidine-5-carboxamide] | 6.49
COc1cc2c(cc1Nc1ncc(C(N)=O)c(Nc3cccc(C(C)N)c3)n1)CN(C)CC2 (stereo not drawn) [Example 2-5, 4-{[3-(1-aminoethyl)phenyl]-amino}-2-[(6-methoxy-2-methyl-1,2,3,4-tetrahydroisoquinolin-7-yl)amino]pyrimidine-5-carboxamide] | 9.60
COc1cc2c(cc1Nc1ncc(C(N)=O)c(Nc3ccccc3Br)n1)CN(C(=O)C1CCC1)CC2 [Example 12-9, 4-[(2-bromophenyl)amino]-2-{[2-(cyclobutanecarbonyl)-6-methoxy-1,2,3,4-tetrahydroisoquinolin-7-yl]amino}pyrimidine-5-carboxamide] | 6.76
COc1cc2c(cc1Nc1ncc(C(N)=O)c(Nc3ccccc3Br)n1)CN(C1CC(OC)C1)CC2 (stereo not drawn) [Example 9-9, 4-[(2-bromophenyl)amino]-2-{[6-methoxy-2-(3-methoxycyclobutyl)-1,2,3,4-tetrahydroisoquinolin-7-yl]amino}pyrimidine-5-carboxamide] | 8.49
NC(=O)c1cnc(Nc2ccccc2)nc1Nc1ccccc1Br [Example 7-105, 4-[(2-bromophenyl)amino]-2-(phenylamino)pyrimidine-5-carboxamide] | 6.46
CN1CCc2cc(F)c(Nc3ncc(C(N)=O)c(Nc4cccc5c4CCNC5=O)n3)cc2C1 [Example 7-37, 2-[(6-fluoro-2-methyl-1,2,3,4-tetrahydroisoquinolin-7-yl)amino]-4-[(1-oxo-1,2,3,4-tetrahydroisoquinolin-5-yl)amino]pyrimidine-5-carboxamide] | 9.68
Cc1cc(Nc2ncc(C(N)=O)c(Nc3cccc4c3CCNC4=O)n2)ccc1C1CC1 [Example 25-12, 2-[(4-cyclopropyl-3-methylphenyl)amino]-4-[(1-oxo-1,2,3,4-tetrahydroisoquinolin-5-yl)amino]pyrimidine-5-carboxamide] | 9.24
CCc1ccccc1Nc1ncc(C(N)=O)c(Nc2cccc3c2CCNC3=O)n1 [Example 25-15, 2-[(2-ethylphenyl)amino]-4-[(1-oxo-1,2,3,4-tetrahydroisoquinolin-5-yl)amino]pyrimidine-5-carboxamide] | 6.68
NC(=O)c1cnc(Nc2cnn(CC3CC3)c2)nc1Nc1cccc2c1CCNC2=O [Example 7-43, 2-{[1-(cyclopropylmethyl)-1H-pyrazol-4-yl]amino}-4-[(1-oxo-1,2,3,4-tetrahydroisoquinolin-5-yl)amino]pyrimidine-5-carboxamide] | 8.37
C#CC[C@H]1CCC[C@H]1Nc1nc(Nc2cc3c(cc2OC)CCN(C)C3)ncc1C(N)=O [Example 26-40, 2-[(6-methoxy-2-methyl-1,2,3,4-tetrahydroisoquinolin-7-yl)amino]-4-{[(1R,2R)-2-(prop-2-yn-1-yl)cyclopentyl]amino}pyrimidine-5-carboxamide] | 8.68
COc1cc2c(cc1Nc1ncc(C(N)=O)c(Nc3c(C)cc(C#N)cc3F)n1)CN(C)CC2 [Example 4-33, 4-[(4-cyano-2-fluoro-6-methylphenyl)amino]-2-[(6-methoxy-2-methyl-1,2,3,4-tetrahydroisoquinolin-7-yl)amino]pyrimidine-5-carboxamide] | 9.36
COc1cc2c(cc1Nc1ncc(C(N)=O)c(Nc3cccc4c3CCN(C)C4)n1)CN(C)CC2 [Example 16-1, 2-((6-methoxy-2-methyl-1,2,3,4-tetrahydroisoquinolin-7-yl)amino)-4-((2-methyl-1,2,3,4-tetrahydroisoquinolin-5-yl)amino)pyrimidine-5-carboxamide] | 10.05

More lines, now with the values ahead:

pIC50 | SMILES
6.65 | COc1cc2c(cc1Nc1ncc(C(N)=O)c(NCc3ccncc3)n1)CN(C)CC2 [Example 26-55, 2-[(6-methoxy-2-methyl-1,2,3,4-tetrahydroisoquinolin-7-yl)amino]-4-{[(pyridin-4-yl)methyl]amino}pyrimidine-5-carboxamide]
9.48 | COc1cc2c(cc1Nc1ncc(C(N)=O)c(Nc3ccccc3Br)n1)CN(C1CC(CO)C1)CC2 (single isomer, unassigned) [Example 9-3, 4-((2-bromophenyl)amino)-2-((2-(3-(hydroxymethyl)cyclobutyl)-6-methoxy-1,2,3,4-tetrahydroisoquinolin-7-yl)amino)pyrimidine-5-carboxamide]
9.07 | COc1cc2c(cc1Nc1ncc(C(N)=O)c(N[C@@H]3c4ccccc4C[C@@H]3O)n1)CN(C)CC2 [Example 26-64, 4-{[(1R,2S)-2-hydroxy-2,3-dihydro-1H-inden-1-yl]amino}-2-[(6-methoxy-2-methyl-1,2,3,4-tetrahydroisoquinolin-7-yl)amino]pyrimidine-5-carboxamide]
7.75 | COc1cc2c(cc1Nc1ncc(C(N)=O)c(N[C@@H]3c4ccccc4C[C@H]3O)n1)CN(C)CC2 [Example 26-65, 4-{[(1R,2R)-2-hydroxy-2,3-dihydro-1H-inden-1-yl]amino}-2-[(6-methoxy-2-methyl-1,2,3,4-tetrahydroisoquinolin-7-yl)amino]pyrimidine-5-carboxamide]
6.96 | COc1ccc(S(C)(=O)=O)cc1Nc1ncc(C(N)=O)c(Nc2cccc3c2CCN(C)C3)n1 [Example 7-61, 2-{[2-methoxy-5-(methylsulfonyl)phenyl]amino}-4-[(2-methyl-1,2,3,4-tetrahydroisoquinolin-5-yl)amino]pyrimidine-5-carboxamide]
9.92 | COc1cc2c(cc1Nc1ncc(C(N)=O)c(Nc3c(F)cccc3C3CCOCC3)n1)CN(C)CC2 [Example 13-12, 4-{[2-fluoro-6-(oxan-4-yl)phenyl]amino}-2-[(6-methoxy-2-methyl-1,2,3,4-tetrahydroisoquinolin-7-yl)amino]pyrimidine-5-carboxamide]
9.92 | CN1CCc2cc(F)c(Nc3ncc(C(N)=O)c(Nc4ccccc4CO)n3)cc2C1 [Example 7-42, 2-[(6-fluoro-2-methyl-1,2,3,4-tetrahydroisoquinolin-7-yl)amino]-4-{[2-(hydroxymethyl)phenyl]amino}py-rimidine-5-carboxamide]
9.74 | COc1cc2c(cc1Nc1ncc(C(N)=O)c(Nc3cccc(C)c3F)n1)CN(C)CC2 [Example 4-14]
9.19 | COc1cc2c(cc1Nc1ncc(C(N)=O)c(Nc3cccc(Cl)c3F)n1)CN(C)CC2 [Example 4-12, 4-[(3-chloro-2-fluorophenyl)amino]-2-[(6-methoxy-2-methyl-1,2,3,4-tetrahydroisoquinolin-7-yl)amino]pyrimidine-5-carboxamide]
6.69 | Cc1c(Cl)cccc1Nc1ncc(C(N)=O)c(Nc2cccc3c2CCNC3=O)n1 [Example 25-26, 2-[(3-chloro-2-methylphenyl)amino]-4-[(1-oxo-1,2,3,4-tetrahydroisoquinolin-5-yl)amino]pyrimidine-5-carboxamide]
9.40 | COc1cc2c(cc1Nc1ncc(C(N)=O)c(Nc3ccccc3CC3(C#N)CCC3)n1)CN(C)CC2 [Example 13-11, 4-({2-[(1-cyanocyclobutyl)methyl]phenyl}amino)-2-[(6-methoxy-2-methyl-1,2,3,4-tetrahydroisoquinolin-7-yl)amino]pyrimidine-5-carboxamide]
7.19 | Cc1cccc(F)c1Nc1nc(Nc2c(C)n[nH]c2C)ncc1C(N)=O [Example 4-34, 2-[(3,5-dimethyl-1H-pyrazol-4-yl)amino]-4-[(2-fluoro-6-methylphenyl)amino] pyrimidine-5-carboxamide]
6.99 | COc1ccc(S(C)(=O)=O)cc1Nc1ncc(C(N)=O)c(Nc2cccc3c2CCNC3)n1 [Example 7-63, 2-{[2-methoxy-5-(methylsulfonyl)phenyl]amino}-4-[(1,2,3,4-tetrahydroisoquinolin-5-yl)amino]pyrimidine-5-carboxamide]
7.38 | CCS(=O)(=O)N1CCc2cc(OC)c(Nc3ncc(C(N)=O)c(Nc4ccccc4Br)n3)cc2C1 [Example 10-6, 4-[(2-bromophenyl)amino]-2-{[2-(ethylsulfonyl)-6-methoxy-1,2,3,4-tetrahydroisoquinolin-7-yl]amino}pyrimidine-5-carboxamide]
9.38 | COc1cc2c(cc1Nc1ncc(C(N)=O)c(Nc3c(F)cc(Br)cc3F)n1)CN(C)CC2 [Example 4-30, 4-[(4-bromo-2,6-difluorophenyl)amino]-2-[(6-methoxy-2-methyl-1,2,3,4-tetrahydroisoquinolin-7-yl)amino]pyrimidine-5-carboxamide]
8.32 | CCn1cc(Cl)c(Nc2nc(Nc3cc4c(cc3OC)CCN(C)C4)ncc2C(N)=O)n1 [Example 7-87, 4-((4-chloro-1-ethyl-1H-pyrazol-3-yl)amino)-2-((6-methoxy-2-methyl-1,2,3,4-tetrahydroisoquinolin-7-yl)amino)pyrimidine-5-carboxamide]
8.32 | COc1cc2c(cc1Nc1ncc(C(N)=O)c(Nc3c(C)noc3C)n1)CN(C)CC2 [Example 7-83, 4-((3,5-dimethylisoxazol-4-yl)amino)-2-((6-methoxy-2-methyl-1,2,3,4-tetrahydroisoquinolin-7-yl)amino)pyrimidine-5-carboxamide]
8.67 | CS(=O)(=O)Cc1ccc(Nc2ncc(C(N)=O)c(Nc3cccc4c3CCNC4=O)n2)cc1 [Example 7-59, 2-({4-[(methylsulfonyl)methyl]phenyl}amino)-4-[(1-oxo-1,2,3,4-tetrahydroisoquinolin-5-yl)amino]pyrimidine-5-carboxamide]
